{"source": "patent US20240156800A1", "about": "“EP300 DEGRADER AND USES THEREOF IN NEUROBLASTOMA” (DANA-FARBER CANCER INSTITUTE, INC., priority 2021, published 2024)", "key": {"His-tagged CRBN": {"target": "His-tagged CRBN (Homo sapiens, UniProt Q96SW2)", "sequence (Q96SW2 whole entry)": "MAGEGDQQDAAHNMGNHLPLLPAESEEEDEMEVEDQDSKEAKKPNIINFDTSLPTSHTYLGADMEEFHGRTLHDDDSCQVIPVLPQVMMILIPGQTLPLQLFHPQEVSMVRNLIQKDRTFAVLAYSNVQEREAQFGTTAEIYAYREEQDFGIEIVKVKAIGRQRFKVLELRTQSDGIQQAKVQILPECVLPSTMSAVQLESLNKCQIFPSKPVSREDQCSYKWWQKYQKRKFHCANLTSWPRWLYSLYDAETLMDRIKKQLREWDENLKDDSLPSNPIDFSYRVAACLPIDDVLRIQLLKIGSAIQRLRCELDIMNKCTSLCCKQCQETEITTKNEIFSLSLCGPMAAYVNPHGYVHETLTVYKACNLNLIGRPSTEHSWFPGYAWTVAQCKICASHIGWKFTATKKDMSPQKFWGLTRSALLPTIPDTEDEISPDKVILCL", "sequence (Q16531 whole entry partner)": "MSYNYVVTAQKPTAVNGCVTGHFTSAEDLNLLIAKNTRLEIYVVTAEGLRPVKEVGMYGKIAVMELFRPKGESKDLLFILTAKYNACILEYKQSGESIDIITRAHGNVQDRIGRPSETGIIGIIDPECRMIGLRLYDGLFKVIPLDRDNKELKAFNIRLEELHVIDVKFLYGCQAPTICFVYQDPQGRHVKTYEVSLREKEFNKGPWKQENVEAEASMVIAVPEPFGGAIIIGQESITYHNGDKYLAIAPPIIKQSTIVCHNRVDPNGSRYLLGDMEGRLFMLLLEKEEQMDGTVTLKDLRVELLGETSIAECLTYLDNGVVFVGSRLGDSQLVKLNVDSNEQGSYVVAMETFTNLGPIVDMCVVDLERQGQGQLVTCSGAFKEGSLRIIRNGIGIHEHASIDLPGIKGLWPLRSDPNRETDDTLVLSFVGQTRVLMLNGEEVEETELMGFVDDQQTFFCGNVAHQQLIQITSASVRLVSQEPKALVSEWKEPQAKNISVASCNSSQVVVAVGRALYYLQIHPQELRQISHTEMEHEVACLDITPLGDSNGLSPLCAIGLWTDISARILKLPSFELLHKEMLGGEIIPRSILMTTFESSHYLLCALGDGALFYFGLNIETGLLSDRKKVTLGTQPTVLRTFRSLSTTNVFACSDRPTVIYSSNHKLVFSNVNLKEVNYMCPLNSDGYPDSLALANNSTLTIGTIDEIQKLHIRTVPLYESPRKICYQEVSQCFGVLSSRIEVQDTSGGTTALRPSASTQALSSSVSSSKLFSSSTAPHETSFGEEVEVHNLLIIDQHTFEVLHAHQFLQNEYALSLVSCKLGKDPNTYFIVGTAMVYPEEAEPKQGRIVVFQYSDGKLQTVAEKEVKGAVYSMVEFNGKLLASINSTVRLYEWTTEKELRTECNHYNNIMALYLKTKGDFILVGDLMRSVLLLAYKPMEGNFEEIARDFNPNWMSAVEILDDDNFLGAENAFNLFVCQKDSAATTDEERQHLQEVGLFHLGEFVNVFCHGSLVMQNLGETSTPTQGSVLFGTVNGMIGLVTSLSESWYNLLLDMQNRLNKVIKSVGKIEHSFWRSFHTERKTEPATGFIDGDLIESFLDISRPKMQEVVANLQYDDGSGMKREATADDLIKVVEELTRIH", "assay": "AlphaLISA assay with biotinylated pomalidomide and His-tagged CRBN", "format": "binding", "conditions": "competition with biotinylated pomalidomide", "description": "To determine whether JQAD1 interacts with the E3 ligase receptor CRBN, the AlphaLISA® platform was used to perform AlphaLISA® fluorescent assays using biotinylated pomalidomide bound to beads and His-tagged CRBN (Yasgar et al. Methods Mol. Biol. 1439:77-98 (2016)). […] Next, biotinylated JQAD1 (Biotin-JQAD1, Scheme 2) was synthesized and incubated with Kelly cell lysates, followed by streptavidin-based purification. […] PROTAC®s may acquire preferential specificity for one of two possible target enzymes due to restricted three-dimensional interactions, as noted in Burslem and Crews, Cell 181:102-14 (2020).\nAssays were performed with minimal modifications from the manufacturer's protocol (PerkinElmer®, USA). Briefly, a 2× solution of components with final concentrations of CRBN-DDB1 at 50 nM, Ni-coated Acceptor Beads at 20 μg/ml, and 15 nM biotinylated-pomalidomide were added in […] to 384-well plates (AlphaPlate-384, PerkinElmer®, USA). 100 nL of compound in DMSO from stock plates were added by pin transfer using a Janus Workstation (PerkinElmer®, USA). Streptavidin-coated donor beads (20 μg/ml final) were added to the solution, followed by incubation at room temperature for 1 hour, and reading on an Envision 2104 (PerkinElmer®, USA), by the manufacturer's protocol."}, "[1]": {"test_system": "Kelly, NGP and BE2C NB cells", "assay": "Propidium iodide DNA flow cytometry (cell cycle, sub-G1)", "format": "cell-based, human", "description": "Cells were infected with lentiviruses encoding single guide RNAs (sgRNAs) or treated with compounds as described for the noted length of time. Cells were then liberated from adhesion to the plate using a sterile spatula (Coming®) followed by centrifugation, aspiration of media, and resuspension in hypotonic citrate-propidium iodide (PI) solution for 30 minutes at 37° C. (Tate et al. Cytometry 4:211-215 (1983)). Nuclei were stabilized using 5M NaCl prior to analysis on a FACSAria™ II (BD Biosciences). Analysis of cell cycle phases was performed using FlowJo® v10.7 (BD Biosciences)."}, "[2]": {"test_system": "Kelly-Cas9 control or CRBN knockout cells", "assay": "CellTiter-Glo assay of Kelly-Cas9 control or CRBN knockout cells", "format": "cell-based, human", "conditions": "range of doses, seven days", "description": "(§1) Cells were infected with lentiviruses encoding sgRNAs or treated with compounds as described. Colony assays were performed by replating cells at 500 cells per well in 6-well dishes and grown in regular growth media for 10 d before 100% methanol fixation, 0.05% crystal violet staining, and quantitation. Experiments were completed in triplicate; data shown are the average of three independent experiments. Cell Titer-Glo® assay was performed as per the manufacturer's instructions (Promega®). Briefly, 1000 cells/well were plated into 96-well plates and treated with a range of compound dosing. Cell viability was measured at the noted time points based on luminescence by the Cell Titer-Glo® assay (Promega®) and read on an Envision 2104 (PerkinElmer®, USA) according to the manufacturer's protocol.\nsgRNAs targeting individual genes were subcloned by standard methodologies within pLKO.5-EFGP. Kelly, SIMA, BE2C, and NGP cells were infected with lenticas9 followed by blasticidin selection. Stable expression of cas9 was established by western blotting of protein lysates using cas9 antibody (Cell Signaling Technology®). Following infection of pLKO.5-EGFP-sgRNA lentivirus, cells were cultured for the identified times prior to evaluation. BE2C cells were infected with pLC-zsgreen or pLC-CRBN lentiviruses and selected using 500 μg/mL hygromycin (Invitrogen™)"}, "H3K27ac": {"test_system": "H3K27ac", "assay": "Western blotting of H3K27ac in treated NB cells", "format": "cell-based, human", "description": "(§2) Cells growing in culture were lysed for whole cell lysates as described in Durbin et al. Nat. Genet. 50:1240-1246 (2018) and Wang et al. Nat. Commun. 10:5622 (2019). Nuclear lysates were prepared using the NE-PER® nuclear lysate kit (Thermo Scientific™) according to the manufacturer's protocol. Chromatin lysates were prepared with the total histone extraction kit (Epigentek). Briefly, equivalent amounts of protein were resolved by western blotting using 4-12% Bis-Tris NuPAGE™ gels (Thermo-Fisher Scientific) prior to transfer, and immunoblotting using primary antibodies to: MYCN (1:1000, Cell Signaling Technology®), H3K27ac (1:1000, Abcam), total H3 (1:1000, Cell Signaling Technology®), EP300 (1:1000, Abcam), CBP (1:500, Cell Signaling Technology®), Cas9 (1:1000, Cell Signaling Technology®), cleaved-PARP1 (1:1000, Cell Signaling Technology), cleaved Caspase-3 (1:1000, Cell Signaling Technology®), β-actin (1:1000, Cell Signaling Technology®), GATA3 (1:1000, EMD Millipore™), TFAP2β (1:1000, Cell Signaling Technology®), Vinculin (1:1000, EMD Millipore™), CRBN (1:1000, Cell Signaling Technology®), HAND2 (1:1000, Santa Cruz Biotechnology). Secondary antibodies were horseradish peroxidase (HRP)-conjugated anti-rabbit or anti-mouse (1:5000, Santa Cruz Biotechnology), incubated prior to exposure to enhanced chemiluminescence reagents (GE, Amersham). For immunoprecipitation, equal amounts of protein were diluted in buffer C as described in Mansour et al. Science 346:1373-1377 (2014) and incubated with antibodies covalently conjugated to Dynabeads™ M-270 beads (Thermo-Fisher Scientific) overnight according to the manufacturer's directions. Antibodies used included: H3K27ac, EP300 (Abcam), CBP, TFAP2β (Cell Signaling Technology®), rabbit immunoglobulin G (IgG) (Santa Cruz Biotechnology®). Immunoprecipitated protein was isolated as per the manufacturer's directions and subjected to western blotting, as described above, or mass spectrometry."}, "NB cell lines": {"test_system": "NB cell lines", "assay": "Colony formation assays of NB cells with EP300/CBP inhibitors", "format": "cell-based, human", "conditions": "multiple NB cell lines (Kelly, BE2C, NB69, NGP); compared with C646 and CBP30", "description": "as §1"}, "[3]": {"test_system": "pro- and anti-apoptotic mRNA transcripts", "assay": "ERCC spike-in RNA-seq of treated Kelly cells", "format": "cell-based, human", "conditions": "500 nM, 24 h", "description": "For in vitro analyses, total RNA was extracted from control […] or JQAD1 treated Kelly cells using TRIzolTM reagent (Ambion). Prior to extraction, exogenous spike-in of synthetic External RNA Control Consortium (ERCC) RNA controls were added based on cell number (Ambion). Samples were treated with RNAse-free DNAse I and spin purified using the Qiagen® RNeasy Kit (Qiagen®). Purified RNA samples were subjected to library construction with poly-adenylation preparation and sequencing using the Illumina NextSeq® 500 (paired end, 75bp reads). RNA-seq reads were aligned to a reference index containing the sequences of the hg19 revision of the human reference genome and the ERCC spike-in probes using hisat 2.1.0. Expression was quantified using sorted BAMs, a gene reference built using ERCC sizes and RefSeq genes downloaded Jul. 15, 2017, and htseq-count with parameters -I gene_id- stranded=reverse -f bam -m intersection-strict. Read counts were converted to transcripts per million (TPM) and used for cell number-normalization. The expression of all RefSeq genes and ERCC probes was floored at 0.01 and a pseudocount of 0.1 was added to all entries. Values were normalized by equilibrating the expression of the ERCC probes among experiments using normalize.loess from the affy R package. The ERCC-normalized expression of each gene after 24 h of either […] or JQAD1 treatment was compared against its expression in dimethyl sulfoxide (DMSO) treated samples to create two-fold changes."}, "[4]": {"test_system": "cleaved caspase-3 and cleaved PARP1", "assay": "Western blotting of apoptosis markers", "format": "cell-based, human", "description": "as §2"}, "MYCN": {"test_system": "MYCN", "assay": "Western blotting of MYCN (whole lysates and chromatin extracts)", "format": "cell-based, human", "description": "as §2"}, "[5]": {"conditions": "BE2C 1 μM, Kelly 500 nM, seven days"}}, "data": [{"smiles": "Nc1cccc2c1C(=O)N(C1CCC(=O)NC1=O)C2=O", "note": "(centres unmarked) [pomalidomide]", "values": [{"measurement": "interaction with CRBN", "setting": "His-tagged CRBN", "result": "efficiently interacted with CRBN"}]}, {"smiles": "CNC(=O)Nc1ccc2c(c1)CC[C@@]21OC(=O)N(CC(=O)N(Cc2ccc(F)cc2)[C@@H](C)C(F)(F)F)C1=O", "note": "[A485]", "values": [{"measurement": "cell cycle effect", "setting": "[1]; BE2C, Kelly, NGP cells, within 24 hours", "result": "G1 cell cycle arrest"}, {"measurement": "cell cycle / subG1 effect", "setting": "[1]; Kelly and NGP cells", "result": "G1 cell cycle arrest"}, {"measurement": "growth of CRBN-knockout Kelly cells", "setting": "[2]", "result": "equivalently inhibited the growth of both CRBN-knockout cells and controls"}, {"measurement": "growth of control-edited Kelly cells", "setting": "[2]", "result": "equivalently inhibited the growth of both CRBN-knockout cells and controls"}, {"measurement": "H3K27Ac modification after prolonged treatment", "setting": "H3K27ac; [5]", "result": "global loss of the H3K27Ac modification"}, {"measurement": "H3K27ac modification", "setting": "H3K27ac; Kelly cells, 24 h", "result": "loss of H3K27ac"}, {"measurement": "reduction of neuroblastoma colony formation", "setting": "NB cell lines", "result": "most potent compound in reducing neuroblastoma colony formation"}, {"measurement": "transcript levels of BIM, BID, PUMA, BAX, BCL2 and MCL1", "setting": "[3]", "result": "unaffected"}, {"measurement": "cleaved caspase 3 and PARP1 after prolonged treatment", "setting": "[4]; [5]", "result": "induction of cleaved caspase 3 and poly [ADP-ribose] polymerase 1 (PARP1)"}, {"measurement": "apoptosis: cleavage of caspase-3 and PARP1", "setting": "[4]; Kelly (1 μM) and NGP (2.5 μM) cells, 12-36 h", "result": "little effect on these parameters"}, {"measurement": "MYCN expression after prolonged treatment", "setting": "MYCN; [5]", "result": "loss of MYCN expression"}, {"measurement": "chromatin-bound MYCN", "setting": "MYCN; Kelly cells, 0.5 and 1 μM, 24 h, chromatin extracts", "result": "did not show MYCN loss from chromatin extracts up to 1.0 μM"}, {"measurement": "interaction with CRBN", "setting": "His-tagged CRBN", "result": "did not"}]}]}
